Where two headings read alike, the source gives them in different places.
Test system: SVR cells
Assay: SVR cell assay: cell numbers counted at 48 hours, percent inhibition versus control
Type: cell-based, murine
Conditions: for inhibition at 1 µg/mL / inhibition at 3 µg/mL / inhibition at 6 µg/mL / inhibition at 9 µg/mL: Mus musculus; for inhibition at 1 µg/mL: read-out: Percent Inhibition at a Specified Density (μg/ml): 1; for inhibition at 3 µg/mL: read-out: Percent Inhibition at a Specified Density (μg/ml): 3; for inhibition at 6 µg/mL: read-out: Percent Inhibition at a Specified Density (μg/ml): 6; for inhibition at 9 µg/mL: read-out: Percent Inhibition at a Specified Density (μg/ml): 9
[1] = 3 μg/ml, 10,000 SVR cells in 24 well dish, counted at 48 hours
[2] = 6 μg/ml, 10,000 SVR cells in 24 well dish, counted at 48 hours
[3] = 9 μg/ml, 10,000 SVR cells in 24 well dish, counted at 48 hours
[4] = 1 μg/ml, 10,000 SVR cells in 24 well dish, counted at 48 hours

Experimental: In the case of testing the anti-angiogenic/anti-cancer activity of compounds according to the present invention, an assay based on SVR cells may be employed. […] The cell numbers are counted and compared against controls. Percent inhibition is readily determined from the data obtained.
10,000 SVR cells were seeded in a 24 well dish [Arbiser, et al., J. Am. […] The cell numbers were counted at 48 hours.

Row | Compound | inhibition at 1 µg/mL [4] | inhibition at 3 µg/mL [1] | inhibition at 6 µg/mL [2] | other results
1 | 2-(2-Naphthylidene)tetralone [Compound 71] | – | – | – | Percent Inhibition at a Specified Density (μg/ml): 3 [1]: 82.8%; Percent Inhibition at a Specified Density (μg/ml): 6 [2]: 88.7%; Percent Inhibition at a Specified Density (μg/ml): 9 [3]: 87.1%
2 | O=C(/C=C/c1ccccc1)c1ccccc1 [Compound 1, Chalcone] | 71.6% | 92.8% | 94.4% | –
3 | COc1ccc(/C=C/C(=O)c2ccc(OC)cc2)cc1 [Compound 2, 4,4′-Dimethoxychalcone] | 29.1% | 63.4% | 85.2% | –
4 | O=C(/C=C/c1ccccc1)/C=C/c1ccccc1 [Compound 3, 1,5-Diphenyl-1E,4E-pentadien-3-one] | 79.3% | 96.8% | 96.8% | –
5 | O=C1C(=Cc2ccccc2)CCC1=Cc1ccccc1 [Compound 4, 2,5-(Dibenzylidene)cyclopentanone] | – | – | – | Percent Inhibition at a Specified Density (μg/ml): 1 [4]: 19.6%; Percent Inhibition at a Specified Density (μg/ml): 3 [1]: 23.8%; Percent Inhibition at a Specified Density (μg/ml): 6 [2]: 38.6%
6 | CC(=O)/C=C/c1ccccc1 [Compound 5, 4-Phenyl-3E-buten-2-one] | – | – | – | inhibition at 1 µg/mL (SVR, 48 h): 41.9%; inhibition at 3 µg/mL (SVR, 48 h): 69%; inhibition at 6 µg/mL (SVR, 48 h): 64%
7 | O=C1CCCCC1=Cc1ccccc1 [Compound 7, 2-(Benzylidene)cyclohexanone] | 23% | 29.5% | 72.4% | –
8 | O=C1C(=Cc2ccccc2)C(=O)c2ccccc21 [Compound 8, 2-(Benzylidene)-1,3-indanedione] | 91.1% | 14% | 34% | –
9 | CC(=O)C(=Cc1ccccc1)C(C)=O [Compound 9, 3-Benzylidene-2,4-pentanedione] | 48.3% | 72% | 82.7% | –
10 | O=C(O)/C=C/c1ccccc1 [Compound 10, trans-Cinnamic Acid, reference compound] | 18.6% | 14.1% | 69.6% | –
11 | O=C(O)C=Cc1ccc(Br)cc1 [Compound 11, para-Bromocinnamic Acid, reference compound] | 18.2% | 3.5% | 0% | –
12 | CC(=O)c1cc2cc(Br)ccc2oc1=O [Compound 12, 3-Acetyl-6-bromocoumarin, reference compound] | 20% | 12.7% | 17.4% | –
13 | CC(=O)c1cc2ccccc2oc1=O [Compound 13, 3-Acetylcoumarin, reference compound] | 26% | 4.9% | 13% | –
14 | O=c1cc(-c2ccccc2)oc2ccccc12 [Compound 14, Flavone, reference compound] | 19.3% | 26.3% | 46.7% | –
15 | O=c1ccoc2ccccc12 [Compound 15, Chromone, reference compound] | 20.6% | 8.2% | 20.8% | –
16 | N#Cc1coc2c(Cl)cc(Cl)cc2c1=O [Compound 16, 6,8-Dichloro-3-cyanochromone, reference compound] | 15.2% | 0% | 0% | –
17 | O=C(O)Cc1ccc(C(=O)/C=C/c2ccccc2)cc1 [Compound 17, 4′-Carboxymethylchalcone] | 13.7% | 3.8% | 29.7% | –
18 | O=C(/C=C/c1ccccc1)c1cccc(C(F)(F)F)c1 [Compound 18, 3′-(Trifluoromethyl)chalcone] | 42.2% | 87.4% | 96.9% | –

Row | Compound | inhibition at 1 µg/mL [4] | inhibition at 3 µg/mL [1] | inhibition at 6 µg/mL [2] | other results
19 | O=C(/C=C/c1ccc(Cl)cc1)c1ccc(Cl)cc1 [Compound 19, 4,4′-Dichlorochalcone] | 13.8% | 11.7% | 31.1% | –
20 | Cc1ccc(/C=C/C(=O)c2ccc(C)cc2)cc1 [Compound 20, 4,4′-Dimethylchalcone] | 36.6% | 67.3% | 89.5% | –
21 | Cc1ccc(C(=O)/C=C/c2ccccc2Cl)c(C)c1 [Compound 21, 2-Chloro-2′,4′-dimethylchalcone] | 29.6% | 25.2% | 73.4% | –
22 | Cc1ccc(C(=O)/C=C/c2ccccc2)c(C)c1 [Compound 22, 2′,4′-Dimethylchalcone] | 41.7% | 80.4% | 87.2% | –
23 | Cc1cccc(C)c1/C=C/C(=O)c1ccccc1 [Compound 23, 2,6-Dimethylchalcone] | 47.7% | 57.9% | 89.6% | –
24 | Cc1ccc(C(=O)/C=C/c2ccc(OCc3ccccc3)cc2)cc1 [Compound 24, 4-Benzyloxy-4′-methylchalcone] | 18.4% | 5.1% | 17% | –
25 | O=C(/C=C/c1ccc(OCc2ccccc2)cc1)c1ccc(Cl)cc1 [Compound 25, 4-Benzyloxy-4′-chlorochalcone] | 25.6% | 4.4% | 62.9% | –
26 | Cc1ccc(C(=O)/C=C/c2ccc(C(C)C)cc2)cc1 [Compound 26, 4-Isopropyl-4′-methylchalcone] | 19.5% | 14.2% | 59.2% | –
27 | Cc1ccc(C(=O)/C=C/c2ccc(Cl)cc2Cl)cc1 [Compound 27, 2,4-Dichloro-4′-methylchalcone] | 19.9% | 10.4% | 84.6% | –
28 | Cc1ccc(C(=O)/C=C/c2c(Cl)cccc2Cl)cc1 [Compound 28, 2,6-Dichloro-4′-methylchalcone] | 73.7% | 98.2% | 98.1% | –
29 | Cc1ccc(/C=C/C(=O)c2ccc(Cl)cc2)cc1 [Compound 29, 4′-Chloro-4-methylchalcone] | 29.9% | 40.2% | 58.5% | –
30 | Cc1ccc(C(=O)/C=C/c2ccc(Cl)cc2)cc1 [Compound 30, 4-Chloro-4′-methylchalcone] | 22.3% | 24.5% | 46.5% | –
31 | O=C(/C=C/c1c(Cl)cccc1Cl)c1ccccc1 [Compound 31, 2,6-Dichlorochalcone] | – | 92.9% | 97.5% | inhibition at 9 µg/mL [3]: 97.9%
32 | O=C(/C=C/c1c(Cl)cccc1Cl)c1c(Cl)cccc1Cl [Compound 32, 2,2′,6,6′-Tetrachlorochalcone] | – | 74.9% | 97% | inhibition at 9 µg/mL [3]: 98.1%
33 | O=C(/C=C/c1ccccc1)c1c(Cl)cccc1Cl [Compound 33, 2′,6′-Dichlorochalcone] | 2.23% | 51.1% | 88.7% | –
34 | O=C(/C=C/c1c(F)c(F)c(F)c(F)c1F)c1c(F)c(F)c(F)c(F)c1F [Compound 34, 2,2′,3,3′,4,4′,5,5′,6,6′-Decafluorochalcone] | 31.1% | 88.6% | 88.6% | –
35 | O=C(/C=C/c1c(F)c(F)c(F)c(F)c1F)c1ccccc1 [Compound 35, 2,3,4,5,6-Pentafluorochalcone] | 0% | 0% | 0% | –

Reference: patent US7432303B2, “Chalcone and its analogs as agents for the inhibition of angiogenesis and related disease states” (James and Emory University, priority 1999, dated 2008)
